In patent US10280198B2, “Therapeutic agents for reducing parathyroid hormone levels” (KAI PHARMACEUTICALS, INC., priority 2009, dated 2019):
Like-named read-outs stand apart in the source and are kept apart here. Square brackets hold non-standard residues; d marks the D form. Peptide text beside a SMILES is read from it. dNle = CCCC[C@@H](N)C(=O)O; dNva = CCC[C@@H](N)C(=O)O

Experiments:
[1] = target: T1, human calcium-sensing receptor (CaSR) (Homo sapiens, UniProt P41180); experiment: In vitro cell assay in HEK-293 expressing the human calcium-sensing receptor (IP1 production); format: cell-based; conditions: for EC50: Table 5, IP1 production in HEK293 cells expressing human CaSR, eight concentrations in duplicate, read-out: EC50 in CaSR in vitro assay
T1 construct: expressed in transfected cells; host or cells: HEK 293T cells, transiently transfected (lipofectamine 2000); in some cases HEK293 cells stably transfected
T1 sequence (P41180 20-1078): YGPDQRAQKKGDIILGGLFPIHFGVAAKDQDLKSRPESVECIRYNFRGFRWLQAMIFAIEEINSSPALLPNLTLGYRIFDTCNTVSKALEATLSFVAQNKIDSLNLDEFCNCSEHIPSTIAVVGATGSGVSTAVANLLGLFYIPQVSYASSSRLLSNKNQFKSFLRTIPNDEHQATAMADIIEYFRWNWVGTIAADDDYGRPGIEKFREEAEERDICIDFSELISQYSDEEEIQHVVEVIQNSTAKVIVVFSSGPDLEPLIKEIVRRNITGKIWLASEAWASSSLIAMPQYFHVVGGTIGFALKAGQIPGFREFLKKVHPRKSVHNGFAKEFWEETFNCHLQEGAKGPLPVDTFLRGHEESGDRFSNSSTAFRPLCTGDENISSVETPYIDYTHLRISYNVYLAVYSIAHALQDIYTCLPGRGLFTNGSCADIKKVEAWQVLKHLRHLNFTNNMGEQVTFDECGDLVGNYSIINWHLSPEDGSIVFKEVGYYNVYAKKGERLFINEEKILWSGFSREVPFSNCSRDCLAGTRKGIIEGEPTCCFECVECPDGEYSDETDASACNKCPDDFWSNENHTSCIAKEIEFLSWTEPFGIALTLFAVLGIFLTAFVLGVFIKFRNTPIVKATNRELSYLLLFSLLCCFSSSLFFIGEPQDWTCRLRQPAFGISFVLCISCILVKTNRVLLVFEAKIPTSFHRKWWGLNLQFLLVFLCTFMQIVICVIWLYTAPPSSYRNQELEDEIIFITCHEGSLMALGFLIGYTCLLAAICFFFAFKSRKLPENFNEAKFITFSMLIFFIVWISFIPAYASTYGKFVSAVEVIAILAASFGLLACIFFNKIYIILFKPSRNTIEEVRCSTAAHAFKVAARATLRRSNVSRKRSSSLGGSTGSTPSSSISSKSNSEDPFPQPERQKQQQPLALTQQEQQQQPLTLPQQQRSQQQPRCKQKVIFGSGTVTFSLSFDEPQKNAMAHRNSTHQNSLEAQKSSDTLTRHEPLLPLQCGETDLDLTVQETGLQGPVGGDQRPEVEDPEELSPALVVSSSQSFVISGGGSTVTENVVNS
Method: The activity of a variety of peptides and conjugates was tested against the human CaSR. These studies were conducted by measuring IP1 production in HEK293 cells that express the human CaSR. Each peptide was tested in eight different concentrations, in duplicates, to establish a dose response curve. Curve fitting was performed using GraphPad Prism. In Table 5, and throughout the specification, residues provided in capital letters are L-amino acids, while lower case letters indicate D-amino acids. “Ac” indicates an acetyl capping group, “NH2” indicates an amide capping group, “Ac-bAla” is an acetylated beta-alanine, “GSH” indicates reduced glutathione, “GS” indicates oxidized glutathione, “PEG” refers to polyethylene glycol, “PEG2” and “PEGS” refer to polyethylene glycol moieties of 2 kDa and 5 kDa, respectively, and “Mpa” refers to mercaptopropionic acid.
The day after, these cells were transfected with human CaSR receptor using lipofectamine 2000 transfection reagent 24 hrs post transfection, cells were seeded in 384 well plates at 8,000 cells/well. […] In some cases, EC50 values were determined by measuring inositol monophosphate production in the HEK293 cells, stably transfected with the human calcium-sensing receptor (see Table 1).
Cells were incubated with compounds at various concentrations (1 mM or 300 μM as the highest and further ½ log serial dilutions) at 37° C. for 1.5 hrs before reaction termination. […] In brief, incubation with the compound was terminated by sequentially adding D2 labeled-IP1 and cryptate-labeled anti-IP1 in lysis buffer and further incubating at room temperature for 60 minutes. […] Non-transfected 293 cells were used as negative control.
IP1 concentrations were calculated from standard curves (generated with Graph Pad Prism ver. 4) using known concentrations of IP1 standards.

plasma PTH = experiment: In vivo PTH lowering after IV bolus in isoflurane-anesthetized normal Sprague Dawley rats; set-up: species or system rat; conditions: Table 7; normal rats, AUC 1-4 h
Method: The peptides were administered intravenously at a dose of 0.5 mg/kg into isoflurane-anesthetized normal Sprague Dawley rats. A control group of rats was treated with saline. Blood was drawn prior to dosing and every hour for 4 hours. Rats were maintained under isoflurane anesthesia for the entire study. […] Percent PTH reduction was calculated according to the following formula: AUCcmpd treated/AUCsaline control*100.
An intravenous (IV) bolus of saline was used as a control. Plasma (K2EDTA) PTH levels were assessed prior to dosing and 1, 2, 3 and 4 hours after dosing. Rats were maintained under isoflurane anesthesia for the entire study. […] In FIG. 2B, PTH is shown as percent of the baseline pre-dose value.
A series of compounds having an L-amino acid residue substituted for a D-amino acid residue were prepared. The compounds were administered as an IV bolus to normal Sprague Dawley rats at a dose of 0.5 mg/kg. An intravenous (IV) bolus of saline was used as a control. […] Rats were maintained under isoflurane anesthesia for the entire study.

[2] = test system: rat peritoneal mast cells; experiment: In vitro histamine induction in rat peritoneal mast cells; format: cell-based
Method: To further evaluate the relationship between compound structure and histamine release, a series of compounds was prepared and assessed for their ability to trigger induction of histamine in an in vitro assay using rat peritoneal mast cells. In this assay, compounds are incubated at 10 μM for 15 minutes at 37° C. with cells isolated from peritoneal lavage of SD rats. Following incubation, cell medium is collected and histamine is determined.
Accordingly, and as can be appreciated in view of the PTH data and the histamine data described hereinabove, in one embodiment, a compound that has activity to decrease PTH level in a subject in the absence of a histamine response is contemplated. In certain embodiments, absence of a histamine response intends a dose of the compound that produces a less than 10-fold, more preferably 8-fold, still more preferably 5-fold, and even still more preferably 3-fold, increase in histamine, measured in vitro in an assay as described herein, where the fold change is determined based on histamine levels before incubation with the compound and after 15 minutes incubation with compound. In a specific embodiment, the histamine response is determined in an in vitro assay using rat peritoneal mast cells isolated from peritoneal lavage of normal Sprague Dawley rats, and where the fold change is determined based on histamine levels before incubation with the compound and after 15 minutes incubation with compound. In the studies conducted herein, the in vitro evaluation of histamine release was performed using isolated rat peritoneal mast cells isolated by peritoneal lavage using cold HBSS+25 mM HEPES pH 7.4 containing heparin (5 u/mL). Cells were washed twice in stimulation buffer (HBSS+25 mM HEPES pH 7.4) and incubated with 10 μM of compound in stimulation buffer (HBSS+25 mM HEPES pH 7.4) for 15 minutes in a 96-well plate ([…]) at 37° C. Cell supernatant was analyzed for histamine using histamine EIA kit (Cayman #589651).
For in vitro evaluation of histamine release, isolated rat peritoneal mast cells were isolated by performing peritoneal lavage using cold HBSS+25 mM HEPES pH 7.4 containing heparin (5 u/mL). Cells were washed twice in stimulation buffer (HBSS+25 mM HEPES pH 7.4) and incubated with 10 μM of compound in stimulation buffer (HBSS+25 mM HEPES pH 7.4) for 15 minutes in a 96-well plate (10^6/well) at 37° C. Cell supernatant was analyzed for histamine using histamine EIA kit (Cayman #589651).

## CC(=O)N[C@H](CS)C(=O)N[C@H](CCCNC(=N)N)C(=O)N[C@H](CCCNC(=N)N)C(=O)N[C@H](CCCNC(=N)N)C(=O)N[C@H](CCCNC(=N)N)C(=O)N[C@H](CCCNC(=N)N)C(=O)N[C@H](CCCNC(=N)N)C(=O)N[C@H](CCCNC(=N)N)C(N)=O [SEQ ID NO: 7, Ac-crrrrrrr-NH2] (Ac-[dC][dR][dR][dR][dR][dR][dR][dR]-NH2)
[1]
  EC50: 0.6 µM

## CC(=O)N[C@@H](CS)C(=O)N[C@H](C)C(=O)N[C@@H](CCCNC(=N)N)C(=O)N[C@H](CCCNC(=N)N)C(=O)N[C@@H](CCCNC(=N)N)C(=O)N[C@H](C)C(=O)N[C@@H](CCCNC(=N)N)C(N)=O [SEQ ID NO: 44, Ac-CaRrRaR-NH2]
[1]; human CaSR, HEK293
  fold decrease in potency relative to Ac-carrrar-NH2 (SEQ ID NO:26): < 4 fold

## CC(=O)N[C@@H](CS)C(=O)N[C@@H](Cc1ccc(O)cc1)C(=O)NCC(=O)N[C@@H](CCCNC(=N)N)C(=O)N[C@@H](CCCCN)C(=O)N[C@@H](CCCCN)C(=O)N[C@@H](CCCNC(=N)N)C(=O)N[C@@H](CCCNC(=N)N)C(=O)N[C@@H](CCC(N)=O)C(=O)N[C@@H](CCCNC(=N)N)C(=O)N[C@@H](CCCNC(=N)N)C(=O)N[C@@H](CCCNC(=N)N)C(N)=O [SEQ ID NO: 47]
[1]
  EC50: 4.5 µM

## CC(=O)N[C@@H](Cc1ccc(O)cc1)C(=O)NCC(=O)N[C@@H](CCCNC(=N)N)C(=O)N[C@@H](CCCCN)C(=O)N[C@@H](CCCCN)C(=O)N[C@@H](CCCNC(=N)N)C(=O)N[C@@H](CCCNC(=N)N)C(=O)N[C@@H](CCC(N)=O)C(=O)N[C@@H](CCCNC(=N)N)C(=O)N[C@@H](CCCNC(=N)N)C(=O)N[C@@H](CCCNC(=N)N)C(N)=O [SEQ ID NO: 48]
[1]
  EC50: 16 µM

## CC(=O)N[C@H](CS)C(=O)N[C@H](Cc1ccc(O)cc1)C(=O)NCC(=O)N[C@H](CCCNC(=N)N)C(=O)N[C@H](CCCCN)C(=O)N[C@H](CCCCN)C(=O)N[C@H](CCCNC(=N)N)C(=O)N[C@H](CCCNC(=N)N)C(=O)N[C@H](CCC(N)=O)C(=O)N[C@H](CCCNC(=N)N)C(=O)N[C@H](CCCNC(=N)N)C(=O)N[C@H](CCCNC(=N)N)C(N)=O [SEQ ID NO: 50, Ac-cygrkkrrqrrr-NH2]
[1]
  EC50: 2 µM

## CC(=O)N[C@H](CS)C(=O)N[C@@H](C(=O)N[C@H](CCCNC(=N)N)C(=O)N[C@H](CCCNC(=N)N)C(=O)N[C@H](CCCNC(=N)N)C(=O)N[C@@H](C(=O)N[C@H](CCCNC(=N)N)C(N)=O)C(C)C)C(C)C [SEQ ID NO: 65, Ac-cvrrrvr-NH2] (Ac-[dC][dV][dR][dR][dR][dV][dR]-NH2)
[1]
  EC50: 35 µM

## CC(=O)N[C@H](CS)C(=O)N[C@H](C)C(=O)N[C@H](CCCNC(=N)N)C(=O)N[C@H](CCCNC(=N)N)C(=O)N[C@H](CCCNC(=N)N)C(=O)N[C@H](C)C(=O)N[C@H](CCCNC(=N)N)C(=O)O [SEQ ID NO: 74, Ac-carrrar-OH]
[1]
  EC50: 31 µM

## CCC[C@@H](NC(=O)[C@@H](CCCNC(=N)N)NC(=O)[C@@H](CCCNC(=N)N)NC(=O)[C@@H](CCCNC(=N)N)NC(=O)[C@@H](CCC)NC(=O)[C@@H](CS)NC(C)=O)C(=O)N[C@H](CCCNC(=N)N)C(N)=O [SEQ ID NO: 132, Ac-c-dNva-rrr-dNva-r-NH2] (Ac-[dC][dNva][dR][dR][dR][dNva][dR]-NH2)
Plasma PTH
  0.5 mg/kg IV bolus % PTH AUC of saline control: 27%
[2]; Table 9, 10 μM, 15 minutes, 37° C.
  Histamine in vitro Fold change of non-treated at 10 uM: 4.1 fold

## CCCC[C@@H](NC(=O)[C@@H](CCCNC(=N)N)NC(=O)[C@@H](C)NC(=O)[C@@H](CCCNC(=N)N)NC(=O)[C@@H](CCCNC(=N)N)NC(=O)[C@@H](CS)NC(C)=O)C(=O)N[C@H](CCCNC(=N)N)C(N)=O [SEQ ID NO: 133, Ac-crrar-dNle-r-NH2] (Ac-[dC][dR][dR][dA][dR][dNle][dR]-NH2)
Plasma PTH
  0.5 mg/kg IV bolus % PTH AUC of saline control: 26%
[2]
  Histamine in vitro Fold change of non-treated at 10 uM: 4.3 fold

## CCCC[C@@H](NC(=O)[C@@H](CS)NC(C)=O)C(=O)N[C@H](CCCNC(=N)N)C(=O)N[C@H](CCCNC(=N)N)C(=O)N[C@H](CCCNC(=N)N)C(=O)N[C@H](C)C(=O)N[C@H](CCCNC(=N)N)C(N)=O [SEQ ID NO: 134, Ac-c-dNle-rrrar-NH2] (Ac-[dC][dNle][dR][dR][dR][dA][dR]-NH2)
Plasma PTH
  0.5 mg/kg IV bolus % PTH AUC of saline control: 10%
[2]
  Histamine in vitro Fold change of non-treated at 10 uM: 2.2 fold

## CCC[C@@H](NC(=O)[C@@H](CCCNC(=N)N)NC(=O)[C@@H](C)NC(=O)[C@@H](CCCNC(=N)N)NC(=O)[C@@H](CCCNC(=N)N)NC(=O)[C@@H](CS)NC(C)=O)C(=O)N[C@H](CCCNC(=N)N)C(N)=O [SEQ ID NO: 135, Ac-crrar-dNva-r-NH2] (Ac-[dC][dR][dR][dA][dR][dNva][dR]-NH2)
Plasma PTH
  0.5 mg/kg IV bolus % PTH AUC of saline control: 8%
[2]
  Histamine in vitro Fold change of non-treated at 10 uM: 1.1 fold

## CCC[C@@H](NC(=O)[C@@H](CS)NC(C)=O)C(=O)N[C@H](CCCNC(=N)N)C(=O)N[C@H](CCCNC(=N)N)C(=O)N[C@H](CCCNC(=N)N)C(=O)N[C@H](C)C(=O)N[C@H](CCCNC(=N)N)C(N)=O [SEQ ID NO: 136, Ac-c-dNva-rrrar-NH2] (Ac-[dC][dNva][dR][dR][dR][dA][dR]-NH2)
Plasma PTH
  0.5 mg/kg IV bolus % PTH AUC of saline control: 7%
[2]
  Histamine in vitro Fold change of non-treated at 10 uM: 2.1 fold
